Assay results from paper PMC3580847 (Biochemistry, 2013).

Key:
Type in all cases: cell-based, Human
[1] = tested on: MDA-MB-231 cells; assay: Proliferation assay; conditions: 2 h treatment in DMEM pH 6.0 or 7.4, MTS at 48 h
[2] = tested on: U2OS cells; assay: Proliferation assay; conditions: 2 h treatment in DMEM pH 6.0 or 7.4, MTS at 48 h
[3] = tested on: M4A4 cells; assay: Proliferation assay; conditions: 2 h treatment in DMEM pH 6.0 or 7.4, MTS at 48 h
[4] = tested on: HeLa cells

Structure (SMILES) | inhibition of cell proliferation / toxicity [1] | inhibition of cell proliferation / toxicity ([1]; listed as Amanitin) | inhibition of cell proliferation / toxicity [2] | inhibition of cell proliferation / toxicity ([2]; listed as Amanitin) | inhibition of cell proliferation / toxicity [3] | inhibition of cell proliferation / toxicity ([3]; listed as Amanitin) | plasma membrane staining with AnnexinV-FITC [4]
CC[C@H](C)[C@@H]1NC(=O)CNC(=O)[C@@H]2Cc3c([nH]c4cc(O)ccc34)[S@+]([O-])C[C@H](NC(=O)CNC1=O)C(=O)N[C@@H](CC(N)=O)C(=O)N1C[C@H](O)C[C@H]1C(=O)N[C@@H]([C@@H](C)[C@@H](O)CO)C(=O)N2 [amanitin, α-Amanitin] | no toxicity was observed | no effect on proliferation | no toxicity was observed | no effect on proliferation | no toxicity was observed | no effect on proliferation | –
CN[C@@H]1C[C@H]2O[C@@](C)([C@@H]1OC)n1c3ccccc3c3c4c(c5c6ccccc6n2c5c31)C(=O)NC4 [staurosporine] | – | – | – | – | – | – | stained with AnnexinV-FITC
